Source: ChEMBL document CHEMBL5036315, “Synthesis, Structure-Activity Relationships, and In Vivo Evaluation of Novel Tetrahydropyran-Based Thiodisaccharide Mimics as Galectin-3 Inhibitors” (J Med Chem, 2021)
Converted amounts (≈) assume the structure as drawn.

Key:
[1] = Aqueous solubility of the compound at pH 1; type: physicochemical; details: aqueous solution
[2] = AUC in C57BL/6 mouse at 30 mg/kg, sc measured upto 24 hrs; type: ADME, organism-based; set-up: route subcutaneous, dose 30 mg/kg, time <=24; details: in vivo
[3] = Half life in C57BL/6 mouse at 2 mg/kg, iv measured upto 24 hrs; type: ADME, organism-based; details: in vivo
[4] = Cmax in C57BL/6 mouse at 30 mg/kg, po measured upto 24 hrs; type: ADME, organism-based; set-up: route oral, dose 30 mg/kg, time <=24; details: in vivo
[5] = Bioavailability in C57BL/6 mouse at 30 mg/kg, sc measured upto 24 hrs; type: ADME, organism-based; details: in vivo
[6] = Oral bioavailability in C57BL/6 mouse at 30 mg/kg measured upto 24 hrs; type: ADME, organism-based; details: in vivo
[7] = Volume of distribution at steady state in C57BL/6 mouse at 2 mg/kg, iv measured upto 24 hrs; type: ADME, organism-based; details: in vivo
[8] = Clearance in C57BL/6 mouse at 2 mg/kg, iv measured upto 24 hrs; type: ADME, organism-based; details: in vivo
[9] = AUC in C57BL/6 mouse at 30 mg/kg, po measured upto 24 hrs; type: ADME, organism-based; set-up: route oral, dose 30 mg/kg, time <=24; details: in vivo
[10] = Cmax in C57BL/6 mouse at 30 mg/kg, sc measured upto 24 hrs; type: ADME, organism-based; set-up: route subcutaneous, dose 30 mg/kg, time <=24; details: in vivo
[11] = Metabolic stability in mouse liver microsomes assessed as compound remaining at 0.5 uM incubated for10 mins in presence of NADPH by LC-MS/MS analysis; type: ADME, Microsome; details: read-out: Stability
[12] = Metabolic stability in human liver microsomes assessed as compound remaining at 0.5 uM incubated for10 mins in presence of NADPH by LC-MS/MS analysis; type: ADME, Microsome; details: read-out: Stability
[13] = Aqueous solubility of the compound at pH 7.4; type: physicochemical; details: aqueous solution

Structure (SMILES)	solubility [1]	AUC at 24 h ([2]; C57BL/6, mouse)	half-life [3]	Cmax [4]	bioavailability ([5]; C57BL/6, mouse)	bioavailability [6]	Vss [7]	clearance [8]	AUC at 24 h [9]	Cmax [10]	remaining at 10 min, 0.5 µM [11]	remaining at 10 min, 0.5 µM [12]	solubility [13]	AUC ([2]; mouse, 24 h)	F ([5]; mouse, 30 mg/kg, 24 h)
CO[C@@H]1[C@@H](n2cc(-c3cc(F)c(F)c(F)c3)nn2)[C@@H](O)[C@@H](CO)O[C@H]1S[C@@H]1COC[C@H](n2cc(-c3nccs3)nn2)[C@H]1O	< 1 µg/mL														
OC[C@H]1O[C@@H](S[C@@H]2O[C@H](CO)[C@H](O)[C@H](n3cc(-c4cccc(F)c4)nn3)[C@H]2O)[C@H](O)[C@@H](n2cc(-c3cccc(F)c3)nn2)[C@H]1O [OLITIGALTIN]		17 µM·h	1.6 h	300 nM	66%	1%	0.7 L/kg	30 mL/min/kg	0.3 µM·h	10300 nM					
COc1ncc(-c2cn([C@H]3COC[C@@H](S[C@@H]4O[C@H](CO)[C@H](O)[C@H](n5cc(-c6cc(F)c(F)c(F)c6)nn5)[C@H]4OC)[C@@H]3O)nn2)cn1	< 1 µg/mL														
CO[C@@H]1[C@@H](n2cc(-c3cc(F)c(F)c(F)c3)nn2)[C@@H](O)[C@@H](CO)O[C@H]1S[C@@H]1COC[C@H](n2cc(-c3cncnc3)nn2)[C@H]1O	6 µg/mL (≈ 9.42 µM)		1.4 h				2.4 L/kg			5900 nM	89%	45%	3 µg/mL (≈ 4.71 µM)	49 µM·h	100%
CO[C@@H]1[C@@H](n2cc(-c3cc(F)c(F)c(F)c3)nn2)[C@@H](O)[C@@H](CO)O[C@H]1S[C@@H]1COC[C@H](n2cc(-c3cccc(F)c3)nn2)[C@H]1O			1.9 h	200 nM		2%	3.6 L/kg	59 mL/min/kg	0.3 µM·h		72%	78%			
CO[C@@H]1[C@@H](n2cc(-c3cc(F)c(F)c(F)c3)nn2)[C@@H](O)[C@@H](CO)O[C@H]1S[C@@H]1COC[C@H](n2cc(-c3cccc(O)c3)nn2)[C@H]1O			1.2 h	10 nM		0.3%	1.6 L/kg	69 mL/min/kg	0.04 µM·h		92%	98%			
COc1cnc(-c2cn([C@H]3COC[C@@H](S[C@@H]4O[C@H](CO)[C@H](O)[C@H](n5cc(-c6cc(F)c(F)c(F)c6)nn5)[C@H]4OC)[C@@H]3O)nn2)nc1	< 1 µg/mL												< 1 µg/mL		
